Results taken from ChEMBL document CHEMBL1201862, “PubChem BioAssay data set” (2004).
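48-hour exposure; five concentrations; linearly interpolated endpoints. GI50 = concentration required for 50% inhibition of growth.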 Active and inactive are the calls of the source. Rule as the data show it: active = GI50 up to about 1.1 µM and inactive = higher.

What was measured:
Assay in all cases: NCI tumour cell line growth inhibition, 48 h
SK-MEL-5 = test system: SK-MEL-5
UACC-257 = test system: UACC-257
SF-295 = test system: SF-295
MDA-N = test system: MDA-N
RXF 393 = test system: RXF 393
OVCAR-4 = test system: OVCAR-4
HT-29 = test system: HT-29
MDA-MB-231 = test system: MDA-MB-231
EKVX = test system: EKVX
OVCAR-3 = test system: OVCAR-3
SF-539 = test system: SF-539
SNB-19 = test system: SNB-19
NCI-H226 = test system: NCI-H226
OVCAR-5 = test system: OVCAR-5
HOP-62 = test system: HOP-62
K562 = test system: K562
SK-MEL-2 = test system: SK-MEL-2
SR = test system: SR
786-0 = test system: 786-0
SNB-75 = test system: SNB-75

Row | Compound | GI50 (SK-MEL-5) | GI50 (UACC-257) | GI50 (SF-295) | GI50 (MDA-N) | GI50 (RXF 393) | GI50 (OVCAR-4) | GI50 (HT-29) | GI50 (MDA-MB-231) | GI50 (EKVX) | GI50 (OVCAR-3) | GI50 (SF-539) | GI50 (SNB-19) | GI50 (NCI-H226) | GI50 (OVCAR-5) | GI50 (HOP-62) | GI50 (K562) | GI50 (SK-MEL-2) | GI50 (SR) | GI50 (786-0) | GI50 (SNB-75)
1 | OC1COC(OCc2ccccc2)C(O)C1O (stereo not drawn) | > 100 µM (inactive) | > 100 µM (inactive) | > 100 µM (inactive) | > 100 µM (inactive) | > 100 µM (inactive) | > 100 µM (inactive) | > 100 µM (inactive) | > 100 µM (inactive) | > 100 µM (inactive) | > 100 µM (inactive) | > 100 µM (inactive) | > 100 µM (inactive) | > 100 µM (inactive) | > 100 µM (inactive) | > 100 µM (inactive) | > 100 µM (inactive) | > 100 µM (inactive) | > 100 µM (inactive) | > 100 µM (inactive) | –
2 | NNC(=O)Cn1c2ccc(Br)cc2c2nc3ccccc3nc21 | > 100 µM (inactive) | 76.4 µM (inactive) | 21.8 µM (inactive) | > 100 µM (inactive) | 23.2 µM (inactive) | – | > 100 µM (inactive) | > 100 µM (inactive) | 9.59 µM (inactive) | 23.2 µM (inactive) | > 100 µM (inactive) | 80 µM (inactive) | > 100 µM (inactive) | 53.7 µM (inactive) | 19.8 µM (inactive) | 33.8 µM (inactive) | 19.1 µM (inactive) | > 100 µM (inactive) | 17.9 µM (inactive) | > 100 µM (inactive)
3 | O=C1NC(=N/c2ccccc2)/C(=N\c2ccccc2)N1c1ccccc1 | 15.9 µM (inactive) | 15.8 µM (inactive) | 15.8 µM (inactive) | 12.3 µM (inactive) | 15 µM (inactive) | 18.4 µM (inactive) | 16 µM (inactive) | 20.8 µM (inactive) | 16.7 µM (inactive) | – | 17.4 µM (inactive) | 17 µM (inactive) | 16.9 µM (inactive) | 18 µM (inactive) | 18.5 µM (inactive) | 26.5 µM (inactive) | 15.1 µM (inactive) | 20 µM (inactive) | 15.5 µM (inactive) | 16.3 µM (inactive)
4 | O=C(c1ccccc1)n1[nH]c(=O)n(-c2ccc(Cl)cc2)c1=O | > 100 µM (inactive) | > 100 µM (inactive) | > 100 µM (inactive) | > 100 µM (inactive) | > 100 µM (inactive) | > 100 µM (inactive) | > 100 µM (inactive) | > 100 µM (inactive) | > 100 µM (inactive) | > 100 µM (inactive) | – | 39 µM (inactive) | > 100 µM (inactive) | > 100 µM (inactive) | > 100 µM (inactive) | > 100 µM (inactive) | > 100 µM (inactive) | > 100 µM (inactive) | > 100 µM (inactive) | > 100 µM (inactive)
5 | CC(=O)c1cccc(NC(=O)/C(=N\NC(=S)NN)C2C(=O)Nc3ccccc3[S+]2[O-])c1 (stereo not drawn) | > 100 µM (inactive) | > 100 µM (inactive) | > 100 µM (inactive) | > 100 µM (inactive) | > 100 µM (inactive) | – | > 100 µM (inactive) | > 100 µM (inactive) | 39.1 µM (inactive) | > 100 µM (inactive) | > 100 µM (inactive) | > 100 µM (inactive) | > 100 µM (inactive) | > 100 µM (inactive) | > 100 µM (inactive) | > 100 µM (inactive) | > 100 µM (inactive) | > 100 µM (inactive) | > 100 µM (inactive) | > 100 µM (inactive)
6 | COC(=O)CCCC(=O)NC1=C(NCc2ccccc2)C(=O)c2ccccc2C1=O | – | 29.7 µM (inactive) | > 10 µM (inactive) | 41.4 µM (inactive) | – | 47.9 µM (inactive) | – | 50.1 µM (inactive) | 51.4 µM (inactive) | 23 µM (inactive) | 36.4 µM (inactive) | > 100 µM (inactive) | – | > 100 µM (inactive) | – | 45.6 µM (inactive) | 87.5 µM (inactive) | 46.5 µM (inactive) | 63.8 µM (inactive) | > 100 µM (inactive)
7 | CCNCCCNc1c2ccccc2nc2ccccc12 | 0.375 µM (active) | 0.424 µM (active) | 0.498 µM (active) | 0.356 µM (active) | 0.568 µM (active) | 0.478 µM (active) | 0.219 µM (active) | 0.612 µM (active) | 0.569 µM (active) | 0.326 µM (active) | 0.279 µM (active) | 0.499 µM (active) | – | 0.278 µM (active) | 0.402 µM (active) | 0.329 µM (active) | 0.518 µM (active) | 0.285 µM (active) | 0.552 µM (active) | 0.234 µM (active)
8 | O=C(Oc1c(Br)cc(Br)cc1C(=O)Oc1ccccc1)C(=O)Oc1c(Br)cc(Br)cc1C(=O)Oc1ccccc1 | 17.3 µM (inactive) | 39 µM (inactive) | 31 µM (inactive) | 27.5 µM (inactive) | 12.9 µM (inactive) | – | 32.7 µM (inactive) | 12.1 µM (inactive) | 26.2 µM (inactive) | 24.3 µM (inactive) | 19.7 µM (inactive) | 20 µM (inactive) | 16 µM (inactive) | 24.4 µM (inactive) | 16.2 µM (inactive) | 12.7 µM (inactive) | 26.7 µM (inactive) | 18.5 µM (inactive) | 19.6 µM (inactive) | –
9 | COc1cc(/C=C2\CCC(C)C3=C2NC(=S)NC3c2cc(OC)c(OC)c(OC)c2)cc(OC)c1OC (stereo not drawn) | 23.2 µM (inactive) | 53.8 µM (inactive) | – | 43.1 µM (inactive) | 34.1 µM (inactive) | 69 µM (inactive) | 60.1 µM (inactive) | 34.5 µM (inactive) | 58.1 µM (inactive) | – | – | 51.8 µM (inactive) | – | > 100 µM (inactive) | 70.6 µM (inactive) | 26.1 µM (inactive) | > 100 µM (inactive) | 25.2 µM (inactive) | 83.9 µM (inactive) | 25.6 µM (inactive)
10 | CSC(SC)=C1C(=O)NN=C1C | > 100 µM (inactive) | > 100 µM (inactive) | > 100 µM (inactive) | > 100 µM (inactive) | > 100 µM (inactive) | > 100 µM (inactive) | > 100 µM (inactive) | > 100 µM (inactive) | > 100 µM (inactive) | > 100 µM (inactive) | > 100 µM (inactive) | > 100 µM (inactive) | > 100 µM (inactive) | > 100 µM (inactive) | > 100 µM (inactive) | > 100 µM (inactive) | > 100 µM (inactive) | > 100 µM (inactive) | > 100 µM (inactive) | –
11 | NNC(=O)CSc1nnc(CCCCCCCCc2nnc(SCC(=O)NN)o2)o1 | > 100 µM (inactive) | > 100 µM (inactive) | > 100 µM (inactive) | > 100 µM (inactive) | > 100 µM (inactive) | > 100 µM (inactive) | > 100 µM (inactive) | > 100 µM (inactive) | > 100 µM (inactive) | – | – | > 100 µM (inactive) | > 100 µM (inactive) | > 100 µM (inactive) | > 100 µM (inactive) | > 100 µM (inactive) | > 100 µM (inactive) | > 100 µM (inactive) | > 100 µM (inactive) | > 100 µM (inactive)
12 | BrCc1ccc(CBr)c2c1-c1c(CBr)ccc3ccc(CBr)c-2c13 | – | > 100 µM (inactive) | > 100 µM (inactive) | > 100 µM (inactive) | – | > 100 µM (inactive) | > 100 µM (inactive) | > 100 µM (inactive) | > 100 µM (inactive) | > 100 µM (inactive) | 56.9 µM (inactive) | > 100 µM (inactive) | > 100 µM (inactive) | > 100 µM (inactive) | > 100 µM (inactive) | 99.1 µM (inactive) | > 100 µM (inactive) | 46.2 µM (inactive) | > 100 µM (inactive) | > 100 µM (inactive)
13 | CCN(CC)c1ccc2cc(C(=O)Nc3ccccc3)c(=N)oc2c1 | > 100 µM (inactive) | > 100 µM (inactive) | > 100 µM (inactive) | > 100 µM (inactive) | > 100 µM (inactive) | > 100 µM (inactive) | > 100 µM (inactive) | > 100 µM (inactive) | > 100 µM (inactive) | – | > 100 µM (inactive) | > 100 µM (inactive) | > 100 µM (inactive) | > 100 µM (inactive) | > 100 µM (inactive) | > 100 µM (inactive) | > 100 µM (inactive) | > 100 µM (inactive) | > 100 µM (inactive) | > 100 µM (inactive)
14 | CC(NP(=O)(c1ccccc1)c1ccccc1)c1ccccc1 (stereo not drawn) | > 100 µM (inactive) | > 100 µM (inactive) | > 100 µM (inactive) | > 100 µM (inactive) | > 100 µM (inactive) | > 100 µM (inactive) | > 100 µM (inactive) | > 100 µM (inactive) | > 100 µM (inactive) | > 100 µM (inactive) | > 100 µM (inactive) | > 100 µM (inactive) | > 100 µM (inactive) | > 100 µM (inactive) | > 100 µM (inactive) | > 100 µM (inactive) | – | > 100 µM (inactive) | > 100 µM (inactive) | > 100 µM (inactive)
15 | C=C1C[C@H]2C=Nc3cc(OCCCOc4cc5c(cc4OC)C(=O)N4CC(=C)C[C@H]4C=N5)c(OC)cc3C(=O)N2C1 [SJG-136] | < 0.01 µM (active) | 0.0146 µM (active) | < 0.01 µM (active) | 0.0143 µM (active) | < 0.0107 µM (active) | 0.0306 µM (active) | 0.0147 µM (active) | < 0.0108 µM (active) | – | 0.0172 µM (active) | < 0.01 µM (active) | < 0.01 µM (active) | 0.0122 µM (active) | – | 0.0106 µM (active) | < 0.01 µM (active) | – | < 0.01 µM (active) | < 0.01 µM (active) | < 0.01 µM (active)
